Tests used:
[1] = molecular target: ALK tyrosine kinase receptor (Homo sapiens, UniProt Q9UM73); assay: Inhibition of wild type human recombinant ALK using TK substrate-biotin incubated for 30 mins by HTRF assay
[2] = Antiproliferative activity against human KARPAS299 cells assessed as inhibition of cell proliferation incubated for 96 hrs by cell-titer-Glo assay; type: functional, cell-based; conditions: KARPAS-299, 96 h
[3] = molecular target: ALK tyrosine kinase receptor (Homo sapiens, UniProt Q9UM73, L1196M); assay: Inhibition of ALK L1196M mutant (unknown origin) using TK substrate-biotin incubated for 30 mins by HTRF assay
ALK tyrosine kinase receptor (Homo sapiens, UniProt Q9UM73, L1196M), sequence (Q9UM73 19-1620 L1196M limits assumed): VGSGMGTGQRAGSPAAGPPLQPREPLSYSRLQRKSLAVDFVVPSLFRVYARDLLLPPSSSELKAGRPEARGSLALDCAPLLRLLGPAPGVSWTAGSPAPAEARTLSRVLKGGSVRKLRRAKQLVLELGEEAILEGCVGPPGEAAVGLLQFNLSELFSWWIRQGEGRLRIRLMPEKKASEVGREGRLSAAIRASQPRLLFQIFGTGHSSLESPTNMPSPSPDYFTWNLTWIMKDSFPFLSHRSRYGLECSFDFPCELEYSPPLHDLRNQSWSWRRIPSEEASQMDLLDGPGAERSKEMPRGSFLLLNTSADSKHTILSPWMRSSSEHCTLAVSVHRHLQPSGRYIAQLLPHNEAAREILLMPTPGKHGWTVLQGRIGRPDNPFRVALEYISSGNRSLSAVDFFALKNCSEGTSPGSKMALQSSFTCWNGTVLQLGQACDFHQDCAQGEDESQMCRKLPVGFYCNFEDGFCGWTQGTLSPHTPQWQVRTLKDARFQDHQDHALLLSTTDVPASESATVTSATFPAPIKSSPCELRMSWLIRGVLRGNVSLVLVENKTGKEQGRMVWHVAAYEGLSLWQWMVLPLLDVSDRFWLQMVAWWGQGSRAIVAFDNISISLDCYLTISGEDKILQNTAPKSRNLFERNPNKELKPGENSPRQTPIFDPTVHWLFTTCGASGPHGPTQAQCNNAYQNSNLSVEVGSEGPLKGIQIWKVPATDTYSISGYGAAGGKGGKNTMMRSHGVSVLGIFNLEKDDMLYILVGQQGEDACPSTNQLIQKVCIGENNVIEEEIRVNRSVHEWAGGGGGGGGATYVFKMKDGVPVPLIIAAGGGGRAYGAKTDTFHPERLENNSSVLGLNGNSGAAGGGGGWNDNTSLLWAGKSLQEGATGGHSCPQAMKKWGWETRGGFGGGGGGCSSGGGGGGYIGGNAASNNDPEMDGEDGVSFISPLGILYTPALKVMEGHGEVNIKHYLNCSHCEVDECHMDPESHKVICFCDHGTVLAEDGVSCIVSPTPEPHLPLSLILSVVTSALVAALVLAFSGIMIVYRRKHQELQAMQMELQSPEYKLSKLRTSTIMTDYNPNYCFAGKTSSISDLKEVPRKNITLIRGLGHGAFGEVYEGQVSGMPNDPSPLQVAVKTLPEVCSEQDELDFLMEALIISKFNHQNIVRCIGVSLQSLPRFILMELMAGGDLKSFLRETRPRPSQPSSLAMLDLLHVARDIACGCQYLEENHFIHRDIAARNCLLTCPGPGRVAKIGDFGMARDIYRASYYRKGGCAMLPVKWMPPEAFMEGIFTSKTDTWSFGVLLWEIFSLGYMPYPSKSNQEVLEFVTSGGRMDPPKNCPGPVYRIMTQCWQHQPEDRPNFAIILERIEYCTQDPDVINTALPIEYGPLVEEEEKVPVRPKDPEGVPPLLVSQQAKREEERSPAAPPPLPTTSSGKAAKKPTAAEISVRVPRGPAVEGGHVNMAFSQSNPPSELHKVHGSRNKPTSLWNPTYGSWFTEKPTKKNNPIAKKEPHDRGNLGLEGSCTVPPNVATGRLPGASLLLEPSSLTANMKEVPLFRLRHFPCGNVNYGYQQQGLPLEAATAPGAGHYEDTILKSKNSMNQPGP

NCI-H2228 = assay: Antiproliferative activity against human NCI-H2228 cells assessed as inhibition of cell proliferation incubated for 96 hrs by cell-titer-Glo assay; type: functional, cell-based; conditions: NCI-H2228, 96 h
[4] = Clearance in rat; type: ADME, organism-based; conditions: in vivo
[5] = Half life in Sprague-Dawley rat at 1 mg/kg, iv by LC-MS/MS method; type: ADME, organism-based; conditions: in vivo
Mus musculus = assay: Toxicity in human NCI-H2228 cells xenografted Balb/c mouse EML4-ALK NSCLC model assessed as induction of body weight loss at 30 mg/kg, po qd for 2 weeks; type: organism-based; conditions: in vivo, 336 h
[6] = Tmax in beagle dog at 3 mg/kg, po by LC-MS/MS method; type: ADME, organism-based, Canis lupus familiaris; conditions: in vivo
[7] = Oral bioavailability in Sprague-Dawley rat at 5 mg/kg by LC-MS/MS method; type: ADME, organism-based; conditions: in vivo
[8] = Cmax in Sprague-Dawley rat at 5 mg/kg, po by LC-MS/MS method; type: ADME, organism-based; parameters: dose 5 mg/kg, route oral; conditions: in vivo
[9] = Volume of distribution in Sprague-Dawley rat at 1 mg/kg, iv by LC-MS/MS method; type: ADME, organism-based; conditions: in vivo
[10] = AUC (0 to infinity) in Sprague-Dawley rat at 5 mg/kg, po by LC-MS/MS method; type: ADME, organism-based; parameters: dose 5 mg/kg, time infinity, route oral; conditions: in vivo
[11] = Half life in beagle dog at 1 mg/kg, iv by LC-MS/MS method; type: ADME, organism-based, Canis lupus familiaris; conditions: in vivo
[12] = Clearance in beagle dog at 1 mg/kg, iv by LC-MS/MS method; type: ADME, organism-based, Canis lupus familiaris; conditions: in vivo
[13] = Volume of distribution in beagle dog at 1 mg/kg, iv by LC-MS/MS method; type: ADME, organism-based, Canis lupus familiaris; conditions: in vivo
[14] = Clearance in Sprague-Dawley rat at 1 mg/kg, iv by LC-MS/MS method; type: ADME, organism-based; conditions: in vivo
[15] = AUC (0 to infinity) in beagle dog at 3 mg/kg, po by LC-MS/MS method; type: ADME, organism-based, Canis lupus familiaris; parameters: dose 3 mg/kg, route oral, time infinity; conditions: in vivo
[16] = AUC (0 to infinity) in beagle dog at 1 mg/kg, iv by LC-MS/MS method; type: ADME, organism-based, Canis lupus familiaris; parameters: dose 1 mg/kg, route intravenous, time infinity; conditions: in vivo
[17] = Cmax in beagle dog at 3 mg/kg, po by LC-MS/MS method; type: ADME, organism-based, Canis lupus familiaris; parameters: dose 3 mg/kg, route oral; conditions: in vivo
[18] = AUC (0 to infinity) in Sprague-Dawley rat at 1 mg/kg, iv by LC-MS/MS method; type: ADME, organism-based; parameters: dose 1 mg/kg, route intravenous, time infinity; conditions: in vivo
[19] = Tmax in Sprague-Dawley rat at 5 mg/kg, po by LC-MS/MS method; type: ADME, organism-based; conditions: in vivo
[20] = Oral bioavailability in beagle dog at 3 mg/kg by LC-MS/MS method; type: ADME, organism-based, Canis lupus familiaris; conditions: in vivo

ALK tyrosine kinase receptor (Homo sapiens, UniProt Q9UM73), sequence (Q9UM73 whole entry): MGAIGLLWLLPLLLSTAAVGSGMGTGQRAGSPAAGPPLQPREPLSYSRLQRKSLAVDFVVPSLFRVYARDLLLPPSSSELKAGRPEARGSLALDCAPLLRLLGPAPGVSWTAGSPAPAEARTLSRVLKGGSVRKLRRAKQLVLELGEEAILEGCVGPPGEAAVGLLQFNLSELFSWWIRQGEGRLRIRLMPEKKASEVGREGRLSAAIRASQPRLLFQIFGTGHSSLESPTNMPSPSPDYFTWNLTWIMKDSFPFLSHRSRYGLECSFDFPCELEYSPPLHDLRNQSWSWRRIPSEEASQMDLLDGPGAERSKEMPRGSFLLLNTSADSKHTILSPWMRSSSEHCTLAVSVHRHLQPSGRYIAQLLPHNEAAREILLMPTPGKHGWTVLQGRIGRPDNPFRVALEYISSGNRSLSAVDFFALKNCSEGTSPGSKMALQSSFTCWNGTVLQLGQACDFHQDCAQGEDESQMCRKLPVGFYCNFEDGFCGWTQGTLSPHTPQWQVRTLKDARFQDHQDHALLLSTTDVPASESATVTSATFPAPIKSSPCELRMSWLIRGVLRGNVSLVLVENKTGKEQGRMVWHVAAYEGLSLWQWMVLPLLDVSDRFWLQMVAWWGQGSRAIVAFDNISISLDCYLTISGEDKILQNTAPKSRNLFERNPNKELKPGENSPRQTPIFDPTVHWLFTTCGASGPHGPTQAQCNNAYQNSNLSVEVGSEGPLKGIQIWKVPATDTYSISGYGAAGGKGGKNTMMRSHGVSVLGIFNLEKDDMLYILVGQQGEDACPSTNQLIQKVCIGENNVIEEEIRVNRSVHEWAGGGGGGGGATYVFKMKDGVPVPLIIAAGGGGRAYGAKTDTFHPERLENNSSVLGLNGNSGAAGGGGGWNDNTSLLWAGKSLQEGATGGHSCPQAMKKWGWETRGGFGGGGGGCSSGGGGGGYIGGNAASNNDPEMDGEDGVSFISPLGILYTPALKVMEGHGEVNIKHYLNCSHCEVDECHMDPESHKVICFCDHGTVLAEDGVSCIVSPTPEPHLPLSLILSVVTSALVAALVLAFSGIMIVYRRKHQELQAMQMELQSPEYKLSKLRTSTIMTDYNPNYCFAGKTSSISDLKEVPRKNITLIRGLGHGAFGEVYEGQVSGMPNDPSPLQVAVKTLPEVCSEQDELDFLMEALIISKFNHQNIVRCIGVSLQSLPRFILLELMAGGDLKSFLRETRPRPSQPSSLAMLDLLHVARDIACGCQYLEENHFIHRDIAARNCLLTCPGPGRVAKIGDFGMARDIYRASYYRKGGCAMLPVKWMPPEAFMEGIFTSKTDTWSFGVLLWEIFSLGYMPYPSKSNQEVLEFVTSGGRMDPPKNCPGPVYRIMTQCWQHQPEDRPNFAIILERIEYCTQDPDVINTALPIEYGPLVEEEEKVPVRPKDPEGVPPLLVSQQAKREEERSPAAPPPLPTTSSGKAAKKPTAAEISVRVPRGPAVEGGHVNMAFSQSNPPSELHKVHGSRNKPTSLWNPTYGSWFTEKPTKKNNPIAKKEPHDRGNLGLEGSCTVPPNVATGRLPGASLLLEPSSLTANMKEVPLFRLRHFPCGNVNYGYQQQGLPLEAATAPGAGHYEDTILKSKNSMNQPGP

| Compound | IC50 (NCI-H2228) | IC50 [2] | also measured |
| --- | --- | --- | --- |
| Cc1cc(Nc2ncc(Cl)c(Nc3cn(C)nc3S(=O)(=O)C(C)C)n2)c(OC2CC2)cc1C1CCN(C)CC1 |  |  | clearance [4]: 22.7 mL/min/kg |
| Cc1cc(Nc2ncc(Cl)c(Nc3cn(C)nc3S(=O)(=O)C(C)C)n2)c(OCC2CC2)cc1C1CCNCC1 | 262 nM | 43 nM |  |
| Cc1cc(Nc2ncc(Cl)c(Nc3cn(C)nc3S(=O)(=O)C(C)C)n2)c(OCC2CC2)cc1C1CCN(C)CC1 | 226 nM | 74 nM |  |
| Cc1cc(Nc2ncc(Cl)c(Nc3cn(C)nc3S(=O)(=O)C(C)C)n2)c(OC(CF)CF)cc1C1CCN(C)CC1 | 403 nM | 62 nM |  |
| Cc1cc(Nc2ncc(Cl)c(Nc3cn(C)nc3S(=O)(=O)C(C)C)n2)c(OC(F)(F)F)cc1C1CCN(C)CC1 | 374 nM | 20 nM |  |
| Cc1cc(Nc2ncc(Cl)c(Nc3cn(C)nc3S(=O)(=O)C(C)C)n2)c(C(F)(F)F)cc1C1CCN(C)CC1 | 1080 nM | 74 nM |  |
| Cc1cc(Nc2ncc(Cl)c(Nc3cn(C)nc3S(=O)(=O)C(C)C)n2)c(C(C)C)cc1C1CCN(C)CC1 | 660 nM |  |  |
| CC(C)S(=O)(=O)c1nn(C)cc1Nc1nc(Nc2ccc(C3CCN(C)CC3)cc2OC2CC2)ncc1Cl | 36 nM | 7 nM | clearance [4]: 79.8 mL/min/kg |
| CC(C)S(=O)(=O)c1nn(C)cc1Nc1nc(Nc2cc(Cl)c(C3CCN(C)CC3)cc2OC2CC2)ncc1Cl | 103 nM | 15 nM |  |
| CC(C)S(=O)(=O)c1nn(C)cc1Nc1nc(Nc2cc(C#N)c(C3CCN(C)CC3)cc2OC2CC2)ncc1Cl | 165 nM | 100 nM |  |
| Cc1cc(Nc2ncc(Cl)c(Nc3cn(C)nc3S(=O)(=O)C(C)C)n2)c(OC2CC2)cc1C1CCN(C(=O)C(C)C)CC1 | 149 nM |  | IC50 [1]: 26 nM; IC50 [3]: 29 nM |
| CCNC(=O)N1CCC(c2cc(OC3CC3)c(Nc3ncc(Cl)c(Nc4cn(C)nc4S(=O)(=O)C(C)C)n3)cc2C)CC1 | 82 nM | 20 nM | IC50 [1]: 4 nM; IC50 [3]: 6 nM |
| Cc1cc(Nc2ncc(Cl)c(Nc3cn(C)nc3S(=O)(=O)C(C)C)n2)c(OC2CC2)cc1C1CCCN(C)C1 (stereo not drawn) | 32 nM | 3 nM | IC50 [1]: 3 nM; IC50 [3]: 7 nM |
| CS(=O)(=O)O.Cc1cc(Nc2ncc(Cl)c(Nc3cn(C)nc3S(=O)(=O)C(C)C)n2)c(OC(C)C)cc1C1CCN(C)CC1 |  |  | half-life [5]: 5.1 h; Activity (Mus musculus): Non-toxic; Tmax [6]: 2 h; bioavailability [7]: 63.2%; Cmax [8]: 199 ng/mL; Vd [9]: 7.5 L/kg; AUC(0-inf) [10]: 3120 ng·h/mL; half-life [11]: 4.9 h; clearance [12]: 26.2 mL/min/kg; Vd [13]: 11 L/kg; clearance [14]: 16.9 mL/min/kg; AUC(0-inf) [15]: 952 ng·h/mL; AUC(0-inf) [16]: 637 ng·h/mL; Cmax [17]: 85.8 ng/mL; AUC(0-inf) [18]: 988 ng·h/mL; Tmax [19]: 6.7 h; bioavailability [20]: 49.2% |

Second part, led by results:

| IC50 (NCI-H2228) | Compound | IC50 [2] | also measured |
| --- | --- | --- | --- |
| 225 nM | Cc1cc(Nc2ncc(Cl)c(Nc3cn(C)nc3S(=O)(=O)C(C)C)n2)c(OC(C)C)cc1C1CCNCC1 | 17 nM | IC50 [1]: 8 nM; IC50 [3]: 20 nM |
| 122 nM | Cc1cc(Nc2ncc(Cl)c(Nc3cn(C)nc3S(=O)(=O)C(C)C)n2)c(OC2CC2)cc1C1CCNCC1 | 9 nM |  |
| 288 nM | Cc1cc(Nc2ncc(Cl)c(Nc3cn(C)nc3S(=O)(=O)C(C)C)n2)c(OC(C)C)cc1C1CNC1 | 60 nM |  |
| 270 nM | Cc1cc(Nc2ncc(Cl)c(Nc3cn(C)nc3S(=O)(=O)C(C)C)n2)c(OC(C)C)cc1C1CN(C)C1 | 17 nM | IC50 [1]: 2 nM; IC50 [3]: 5 nM |
| 364 nM | Cc1cc(Nc2ncc(Cl)c(Nc3cn(C)nc3S(=O)(=O)C(C)C)n2)c(OC(C)C)cc1C1CCNC1 (stereo not drawn) | 28 nM |  |
| 131 nM | Cc1cc(Nc2ncc(Cl)c(Nc3cn(C)nc3S(=O)(=O)C(C)C)n2)c(OC(C)C)cc1C1CCN(C)C1 (stereo not drawn) | 11 nM |  |

From ChEMBL document CHEMBL3603807, “Discovery of 2-arylamino-4-(1-methyl-3-isopropylsulfonyl-4-pyrazol-amino)pyrimidines as potent anaplastic lymphoma kinase (ALK) inhibitors” (Bioorg Med Chem Lett, 2015)
